Experimental data published in patent US20150291547A1, “SMALL MOLECULES FOR EXTENDING THE WELL BEING OF CELLS AND METHODS OF USE THEREOF” (NANYANG POLYTECHNIC, priority 2011, published 2015).

Columns and labels:
[1] = test system: hTERT expression (hTERT promoter); test: HepG2-phTERT-SEAP reporter assay (SEAP activity as measure of hTERT expression); assay type: cell-based, human; conditions: for increase in hTERT expression: 16 hours; for average increase in hTERT expression: 20 μg/ml, 16 hours incubation, HepG2-hTERT reporter cell line, n=5 (FIG. 1)
Description: NPL which consists of a total of 480 different pure natural product compounds.
(§1) “SEAP” stands for secreted alkaline phosphatase enzyme. SEAP was used as a reporter system to monitor the transcriptional activity of hTERT. Here, about 10,000 cells per well were grown in 96-well plates and incubated at 37° C. for 22 hours. Varying types and amounts of natural compounds were added and cells were incubated for another 16 hours. Culture media were collected and heated at 65° C. for 10 mins to inactivate heat labile phosphatases. An equal amount of SEAP buffer (2M diethanolamine, 1 mM MgCl2, and 20 mM L-homoarginine), was added to the media and p-nitrophenyl phosphate was added to a final concentration of 12 mM. Absorbance at 405 nm was taken, and the percentage change in absorbance was calculated.
An increase in SEAP activity detected via the utilization of a substrate, translates to an increase in hTERT expression.
Cell lines suitable for use in the assay were prepared from ATTC No. HB-8065 Hep G2 (Hepatocellular carcinoma, human). The Hep G2 cell line was isolated from a liver biopsy of a person with a well differentiated hepatocellular carcinoma. These cells are epithelial in morphology. These cells secrete a variety of major plasma proteins e.g., alpha-fetoprotein (alpha fetoprotein); albumin; alpha2 macroglobulin (alpha-2-macroglobulin); alpha1 antitrypsin (alpha-1-antitrypsin); transferrin; alpha1 antichymotrypsin; (alpha-1-antichymotrypsin); haptoglobin; ceruloplasmin; plasminogen; complement (C4); C3 activator; fibrinogen; alpha1 acid glycoprotein (alpha-1 acid glycoprotein); alpha2 HS glycoprotein (alpha-2-HS-glycoprotein); beta lipoprotein (beta-lipoprotein); retinol binding protein (retinol-binding protein). The cells are also responsive to stimulation with human growth hormone. HepG2 cells and its derivatives are commonly used as a model system for studies of liver metabolism and toxicity of xenobiotics, the detection of cytoprotective, anti (environmental and dietary) genotoxic and cogenotoxic agents, understanding hepatocarcinogenesis, and for drug targeting studies. HepG2 cells are also employed in trials with bio-artificial liver devices.
(§2) One of the plasmids contains the 5′ upstream hTERT promoter region followed by the reporter gene, the SEAP gene, while the other plasmid contains the CMV promoter region controlling the expression of the SEAP gene.
(§3) Each plasmid was then individually transfected into HepG2 cells and stable cells lines were established by selection on G418 (1 mg/ml). Stable clones of from each plasmid transfected cell line was established and each clone was propagated and preserved under liquid nitrogen for long term storage prior to use
(§4) The newly established HepG2-pTERT-SEAP and HepG2-pCMV-SEAP stable cell lines were then used for screening for inhibitors or activators of human telomerase expression.
An increase in SEAP activity indicates an increase in hTERT expression and a decrease in SEAP activity indicates a decrease in hTERT expression.
HepG2-phTERT-SEAP cells were grown for 22 hours in M199 medium supplemented with 10% FBS. The three compounds, 7E (P1), 8H(P1) and 11E(P2) (20 μg/ml) specified above were added and incubated for another 16 hours. After 16 hours, SEAP assay was conducted in accordance to the protocol described by Huang et al. (2003).

[2] = test system: hTERT promoter relative to CMV promoter; test: Specificity check: hTERT promoter relative to CMV promoter driven SEAP in HepG2 cells; assay type: cell-based, human; conditions: for Average phTERT/pCMV ratio: 20 μg/ml, 16 hours, ± SE, n = 3; for specificity in activating hTERT expression: judged from average phTERT/pCMV ratio
Description: as §1, §2, §3, §4
HepG2-pCMV-SEAP serves as a positive control to ensure that SEAP is always secreted by cells harbouring this plasmid. It also serves as a specificity control as any small molecules that stimulate or inhibit only telomerase expression identified using the HepG2-pTERT-SEAP cells screening should show little to no increase in SEAP activity.
HepG2-phTERT-SEAP cells were grown for 22 hours in M199 medium supplemented with 10% FBS. The three compounds (20 μg/ml) specified above were then added and incubated for another 16 hours. After 16 hours, SEAP assay was conducted in accordance to the protocol described by Huang et al. (2003). Concurrently, HepG2-pCMV-SEAP cells were also subjected to the compounds and results were also collected. The results obtained were as shown in Table 1 below which indicate the change in hTERT expression from n=3 independent experiments.

[3] = 1.25ug/ml, above untreated cells
[4] = 20 ug/ml, vs 1% DMSO control wells
[5] = 100 ug/ml, vs 1% DMSO control wells

SMILES | increase in hTERT expression [1, 3] [%] | average increase in hTERT expression [1] [%] | increase in hTERT expression [1, 4] [%] | increase in hTERT expression [1, 5] [%] | Average phTERT/pCMV ratio [2] | specificity in activating hTERT expression [2]
O=c1cc(-c2ccc(O)c(O)c2)oc2cc(O[C@@H]3O[C@H](CO)[C@@H](O)[C@H](O)[C@H]3O)cc(O)c12 [7E, Plate 1, 2-(3,4-dihydroxyphenyl)-5-hydroxy-7-[3,4,5-trihydroxy-6-(hydroxymethyl)(2H-3,4,5,6-tetrahydropyran-2-yloxy)]chromen-4-one] | 12.3 | 29.42 | 34.7 | 167.0 | 1.08 ± 0.04 | only mildly specific
COc1cc2ccc(=O)oc2c(O)c1OCC=C(C)C [8H, Plate 1, 8-hydroxy-6-methoxy-7-(3-methylbut-2-enyloxy) chromen-2-one] | 8.1 | 49.76 | 39.5 | 139.5 | 2.16 ± 0.14 | highly specific
COc1cc2ccc(=O)oc2cc1O [11E, Plate 2, 7-hydroxy-6-methoxychromen-2-one] | 4.3 | 57.99 | 54.2 | 225.8 | 2.01 ± 0.01 | highly specific
Cc1ccc(C(=O)Nc2ccc(S(=O)(=O)O)c3cc(S(=O)(=O)O)cc(S(=O)(=O)O)c23)cc1NC(=O)c1cccc(NC(=O)Nc2cccc(C(=O)Nc3cc(C(=O)Nc4ccc(S(=O)(=O)O)c5cc(S(=O)(=O)O)cc(S(=O)(=O)O)c45)ccc3C)c2)c1 [Suramin, reference compound] | – | – | – | – | 1.16 ± 0.11 | –
